Source: ChEMBL document CHEMBL3885881, “DrugMatrix”

Species: Rattus norvegicus
Experiment: DrugMatrix - Regimen: Daily Repeat
Type: toxicity, organism-based, Sprague-Dawley
Design: regimen Daily Repeat, gender Male, age 6-8 weeks
Settings: in vivo, po, route oral GAVAGE, vehicle 100 % WATER; for ABSOLUTE BASOPHIL / ABSOLUTE EOSINOPHIL / ABSOLUTE LYMPHOCYTE / ABSOLUTE MONOCYTE / ABSOLUTE SEGMENTED NEUTROPHIL / BASOPHIL / EOSINOPHIL / ERYTHROCYTE COUNT / HEMATOCRIT / HEMOGLOBIN / LEUKOCYTE COUNT / LYMPHOCYTE / MEAN CORPUSCULAR HEMOGLOBIN / MEAN CORPUSCULAR HEMOGLOBIN CONCENTRATION / MEAN CORPUSCULAR VOLUME / MONOCYTE / NEUTROPHIL / NUCLEATED RED BLOOD CELLS / PLATELET COUNT: tissue Blood; for ALANINE AMINOTRANSFERASE / ALBUMIN / ALKALINE PHOSPHATASE / ASPARTATE AMINOTRANSFERASE / BLOOD UREA NITROGEN / CARBON DIOXIDE / CHLORIDE / CHOLESTEROL / CREATINE PHOSPHOKINASE / CREATININE / GLUCOSE / LACTATE DEHYDROGENASE / LIPASE / PHOSPHORUS / POTASSIUM / SODIUM / TOTAL BILIRUBIN / TOTAL PROTEIN / URIC ACID: tissue Plasma
[1] = 0 mg/kg, 72 h, dose level Control, time 3 day
[2] = 0 mg/kg, 120 h, dose level Control, time 5 day
[3] = 11 mg/kg, 72 h, dose level Low, time 3 day

CN(C)C(=O)Oc1cccc([N+](C)(C)C)c1.[Br-] [NEOSTIGMINE BROMIDE]
ABSOLUTE BASOPHIL [1]: 0 CELLS/uL | ABSOLUTE EOSINOPHIL [1]: 32.5 CELLS/uL | ABSOLUTE LYMPHOCYTE [1]: 9305.83 CELLS/uL | ABSOLUTE MONOCYTE [1]: 43.83 CELLS/uL | ABSOLUTE SEGMENTED NEUTROPHIL [1]: 817.83 CELLS/uL | BASOPHIL [1]: 0% | EOSINOPHIL [1]: 0.33% | ERYTHROCYTE COUNT [1]: 5.38 x10E6/uL | HEMATOCRIT [1]: 33.63% | HEMOGLOBIN [1]: 13.17 G/DL | LEUKOCYTE COUNT [1]: 10.2 x10E3/uL | LYMPHOCYTE [1]: 91.17% | MEAN CORPUSCULAR HEMOGLOBIN [1]: 24.5 pg | MEAN CORPUSCULAR HEMOGLOBIN CONCENTRATION [1]: 39.13 G/DL | MEAN CORPUSCULAR VOLUME [1]: 62.53 fL | MONOCYTE [1]: 0.5% | NEUTROPHIL [1]: 8% | NUCLEATED RED BLOOD CELLS [1]: 0.17 /100WBC | PLATELET COUNT [1]: 858 x10E3/uL | ALANINE AMINOTRANSFERASE [1]: 55.67 u/L | ALBUMIN [1]: 4.07 G/DL | ALKALINE PHOSPHATASE [1]: 337 u/L | ASPARTATE AMINOTRANSFERASE [1]: 84 u/L | BLOOD UREA NITROGEN [1]: 13.17 mg/dL | CARBON DIOXIDE [1]: 34.17 mmol/L | CHLORIDE [1]: 99.33 MEQ/L | CHOLESTEROL [1]: 78.83 mg/dL | CREATINE PHOSPHOKINASE [1]: 576.83 u/L | CREATININE [1]: 0.17 mg/dL | GLUCOSE [1]: 152.67 mg/dL | LACTATE DEHYDROGENASE [1]: 147.83 u/L | LIPASE [1]: 9.5 u/L | PHOSPHORUS [1]: 10.78 mg/dL | POTASSIUM [1]: 6.34 MEQ/L | SODIUM [1]: 144.12 MEQ/L | TOTAL BILIRUBIN [1]: 0.18 mg/dL | TOTAL PROTEIN [1]: 6.08 G/DL | URIC ACID [1]: 0.65 mg/dL | ABSOLUTE BASOPHIL [2]: 0 CELLS/uL | ABSOLUTE EOSINOPHIL [2]: 31.17 CELLS/uL | ABSOLUTE LYMPHOCYTE [2]: 7918.33 CELLS/uL | ABSOLUTE MONOCYTE [2]: 58.33 CELLS/uL | ABSOLUTE SEGMENTED NEUTROPHIL [2]: 725.5 CELLS/uL | BASOPHIL [2]: 0% | EOSINOPHIL [2]: 0.33% | ERYTHROCYTE COUNT [2]: 5.32 x10E6/uL | HEMATOCRIT [2]: 33.53% | HEMOGLOBIN [2]: 13.17 G/DL | LEUKOCYTE COUNT [2]: 8.73 x10E3/uL | LYMPHOCYTE [2]: 90.33% | MEAN CORPUSCULAR HEMOGLOBIN [2]: 24.82 pg | MEAN CORPUSCULAR HEMOGLOBIN CONCENTRATION [2]: 39.33 G/DL | MEAN CORPUSCULAR VOLUME [2]: 63.12 fL | MONOCYTE [2]: 0.67% | NEUTROPHIL [2]: 8.67% | NUCLEATED RED BLOOD CELLS [2]: 0 /100WBC | PLATELET COUNT [2]: 1144.83 x10E3/uL | ALANINE AMINOTRANSFERASE [2]: 60.5 u/L | ALBUMIN [2]: 3.97 G/DL | ALKALINE PHOSPHATASE [2]: 343.17 u/L | ASPARTATE AMINOTRANSFERASE [2]: 80.83 u/L | BLOOD UREA NITROGEN [2]: 15 mg/dL | CARBON DIOXIDE [2]: 31 mmol/L | CHLORIDE [2]: 99.75 MEQ/L | CHOLESTEROL [2]: 71.5 mg/dL | CREATINE PHOSPHOKINASE [2]: 237.17 u/L | CREATININE [2]: 0.17 mg/dL | GLUCOSE [2]: 137 mg/dL | LACTATE DEHYDROGENASE [2]: 146.17 u/L | LIPASE [2]: 11.5 u/L | PHOSPHORUS [2]: 10.13 mg/dL | POTASSIUM [2]: 6 MEQ/L | SODIUM [2]: 145 MEQ/L | TOTAL BILIRUBIN [2]: 0.13 mg/dL | TOTAL PROTEIN [2]: 5.82 G/DL | URIC ACID [2]: 0.62 mg/dL | ABSOLUTE BASOPHIL [3]: 0 CELLS/uL | ABSOLUTE EOSINOPHIL [3]: 0 CELLS/uL | ABSOLUTE LYMPHOCYTE [3]: 8155 CELLS/uL | ABSOLUTE MONOCYTE [3]: 60.33 CELLS/uL | ABSOLUTE SEGMENTED NEUTROPHIL [3]: 851.33 CELLS/uL | BASOPHIL [3]: 0% | EOSINOPHIL [3]: 0% | ERYTHROCYTE COUNT [3]: 5.22 x10E6/uL | HEMATOCRIT [3]: 32.5% | HEMOGLOBIN [3]: 12.8 G/DL | LEUKOCYTE COUNT [3]: 9.07 x10E3/uL | LYMPHOCYTE [3]: 90% | MEAN CORPUSCULAR HEMOGLOBIN [3]: 24.53 pg | MEAN CORPUSCULAR HEMOGLOBIN CONCENTRATION [3]: 39.4 G/DL | MEAN CORPUSCULAR VOLUME [3]: 62.3 fL | MONOCYTE [3]: 0.67% | NEUTROPHIL [3]: 9.33% | NUCLEATED RED BLOOD CELLS [3]: 0 /100WBC | PLATELET COUNT [3]: 925.67 x10E3/uL | ALANINE AMINOTRANSFERASE [3]: 55.67 u/L | ALBUMIN [3]: 3.93 G/DL | ALKALINE PHOSPHATASE [3]: 332.67 u/L | ASPARTATE AMINOTRANSFERASE [3]: 81.67 u/L | BLOOD UREA NITROGEN [3]: 13.67 mg/dL | CARBON DIOXIDE [3]: 34.33 mmol/L | CHLORIDE [3]: 98.67 MEQ/L | CHOLESTEROL [3]: 82.67 mg/dL | CREATINE PHOSPHOKINASE [3]: 214.67 u/L | CREATININE [3]: 0.14 mg/dL | GLUCOSE [3]: 150.67 mg/dL | LACTATE DEHYDROGENASE [3]: 142.33 u/L | LIPASE [3]: 9.33 u/L | PHOSPHORUS [3]: 10.87 mg/dL | POTASSIUM [3]: 5.64 MEQ/L | SODIUM [3]: 144.73 MEQ/L | TOTAL BILIRUBIN [3]: 0.17 mg/dL | TOTAL PROTEIN [3]: 5.97 G/DL | URIC ACID [3]: 0.47 mg/dL
